From US10757941B2, “Microbiocidal oxadiazole derivatives” (SYNGENTA PARTICIPATIONS AG, priority 2016, dated 2020)

Key:
[1] = tested on: Glomerella lagenarium (Colletotrichum lagenarium); assay: Fungicidal activity against Glomerella lagenarium (Colletotrichum lagenarium) liquid culture / cucumber / preventative (anthracnose); assay type: cell-based; settings: Colletotrichum orbiculare; 20 ppm in the applied formulation; liquid culture in PDB, 24° C.; inhibition of growth measured photometrically 3 to 4 days after application; compared to untreated; read-out: disease control
Protocol: Mycelia fragments or conidia suspensions of a fungus prepared either freshly from liquid cultures of the fungus or from cryogenic storage, are directly mixed into nutrient broth. DMSO solutions of the test compound (max. 10 mg/ml) are diluted with 0.025% Tween20 by a factor of 50 and 10 μl of this solution is pipetted into a microtiter plate (96-well format). The nutrient broth containing the fungal spores/mycelia fragments is then added to give an end concentration of the tested compound. The test plates are incubated in the dark at 24° C. and 96% relative humidity. The inhibition of fungal growth is determined photometrically after 2 to 7 days, depending on the pathosystem, and percent antifungal activity relative to the untreated check is calculated. Example 4: Fungicidal Activity Against Glomerella lagenarium (Colletotrichum lagenarium) Liquid Culture/Cucumber/Preventative (Anthracnose) Conidia of the fungus from cryogenic storage are directly mixed into nutrient broth (PDB—potato dextrose broth). After placing a (DMSO) solution of test compound into a microtiter plate (96-well format), the nutrient broth containing the fungal spores is added. The test plates are incubated at 24° C. and the inhibition of growth is measured photometrically 3 to 4 days after application. The following compounds at 20 ppm in the applied formulation give at least 80% disease control in this test when compared to untreated control under the same conditions, which show extensive disease development.

[2] = tested on: Phakopsora pachyrhizi; assay: Fungicidal activity against Phakopsora pachyrhizi / soybean / leaf disc preventative (Asian soybean rust); assay type: in vivo; settings: foliar, 200 ppm in the applied formulation, soybean leaf disks, preventative (inoculated one day after application), assessed 12 to 14 days after application, compared to untreated, read-out: disease control
Protocol: Leaf disks or leaf segments of various plant species are cut from plants grown in a greenhouse. The cut leaf disks or segments are placed in multiwell plates (24-well format) onto water agar. The leaf disks are sprayed with a test solution before (preventative) or after (curative) inoculation. Compounds to be tested are prepared as DMSO solutions (max. 10 mg/ml) which are diluted to the appropriate concentration with 0.025% Tween20 just before spraying. The inoculated leaf disks or segments are incubated under defined conditions (temperature, relative humidity, light, etc.) according to the respective test system. A single evaluation of disease level is carried out 3 to 14 days after inoculation, depending on the pathosystem. Percent disease control relative to the untreated check leaf disks or segments is then calculated. Example 3: Fungicidal Activity Against Phakopsora pachyrhizi/Soybean/Leaf Disc Preventative (Asian Soybean Rust) Soybean leaf disks are placed on water agar in multiwell plates (24-well format) and sprayed with the formulated test compound diluted in water. One day after application leaf discs are inoculated by spraying a spore suspension on the lower leaf surface. After an incubation period in a climate cabinet of 24-36 hours in darkness at 20° C. and 75% rh leaf disc are kept at 20° C. with 12 h light/day and 75% rh. The activity of a compound is assessed as percent disease control compared to untreated when an appropriate level of disease damage appears in untreated check leaf disks (12 to 14 days after application). The following compounds at 200 ppm in the applied formulation give at least 80% disease control in this test when compared to untreated control leaf disks under the same conditions, which show extensive disease development.

[3] = tested on: Puccinia recondita f. Sp. Tritici; assay: Fungicidal activity against Puccinia recondita f. sp. tritici / wheat / leaf disc curative (brown rust); assay type: in vivo; settings: foliar, 200 ppm in the applied formulation, wheat leaf segments cv. Kanzler, curative (applied 1 day after inoculation), assessed 6 to 8 days after application, compared to untreated, read-out: disease control
Protocol: Leaf disks or leaf segments of various plant species are cut from plants grown in a greenhouse. The cut leaf disks or segments are placed in multiwell plates (24-well format) onto water agar. The leaf disks are sprayed with a test solution before (preventative) or after (curative) inoculation. Compounds to be tested are prepared as DMSO solutions (max. 10 mg/ml) which are diluted to the appropriate concentration with 0.025% Tween20 just before spraying. The inoculated leaf disks or segments are incubated under defined conditions (temperature, relative humidity, light, etc.) according to the respective test system. A single evaluation of disease level is carried out 3 to 14 days after inoculation, depending on the pathosystem. Percent disease control relative to the untreated check leaf disks or segments is then calculated. Example 2: Fungicidal Activity Against Puccinia recondita f. Sp. Tritici/Wheat/Leaf Disc Curative (Brown Rust) Wheat leaf segments cv. Kanzler are placed on agar in multiwell plates (24-well format). The leaf segments are then inoculated with a spore suspension of the fungus. Plates were stored in darkness at 19° C. and 75% relative humidity. The formulated test compound diluted in water was applied 1 day after inoculation. The leaf segments were incubated at 19° C. and 75% relative humidity under a light regime of 12 hours light/12 hours darkness in a climate cabinet and the activity of a compound was assessed as percent disease control compared to untreated when an appropriate level of disease damage appears in untreated check leaf segments (6 to 8 days after application). The following compounds at 200 ppm in the applied formulation give at least 80% disease control in this test when compared to untreated control leaf disks under the same conditions, which show extensive disease development.

[4] = tested on: Uromyces viciae-fabael; assay: Fungicidal activity against Uromyces viciae-fabae / field bean / leaf disc preventative (faba-bean rust); assay type: in vivo; settings: foliar, 288 h, 100 ppm in the applied formulation, field bean leaf discs, preventative (inoculated two hours after application), assessed 12 days after application, compared to untreated, read-out: disease control
Protocol: Leaf disks or leaf segments of various plant species are cut from plants grown in a greenhouse. The cut leaf disks or segments are placed in multiwell plates (24-well format) onto water agar. The leaf disks are sprayed with a test solution before (preventative) or after (curative) inoculation. Compounds to be tested are prepared as DMSO solutions (max. 10 mg/ml) which are diluted to the appropriate concentration with 0.025% Tween20 just before spraying. The inoculated leaf disks or segments are incubated under defined conditions (temperature, relative humidity, light, etc.) according to the respective test system. A single evaluation of disease level is carried out 3 to 14 days after inoculation, depending on the pathosystem. Percent disease control relative to the untreated check leaf disks or segments is then calculated. Example 5: Fungicidal Activity Against Uromyces viciae-fabael Field Bean/Leaf Disc Preventative (Faba-Bean Rust) Field bean leaf discs are placed on water agar in multiwell plates (96-well format) and 10 μl of the formulated test compound diluted in acetone and a spreader pipetted onto the leaf disc. Two hours after application leaf discs are inoculated by spraying a spore suspension on the lower leaf surface. The leaf discs are incubated in a climate cabinet at 22° C. with 18 hour day and 70% relative humidity. The activity of a compound is assessed as percent disease control compared to untreated when an appropriate level of disease damage appears in untreated check leaf disks (12 days after application). The following compounds at 100 ppm in the applied formulation give at least 80% disease control in this test when compared to untreated control leaf discs under the same conditions, which show extensive disease development.

[5] = tested on: Puccinia recondita f. Sp. Tritici; assay: Fungicidal activity against Puccinia recondita f. sp. tritici / wheat / leaf disc preventative (brown rust); assay type: in vivo; settings: foliar, 200 ppm in the applied formulation, wheat leaf segments cv. Kanzler, preventative (inoculated 1 day after application), assessed 7 to 9 days after application, compared to untreated, read-out: disease control
Protocol: Leaf disks or leaf segments of various plant species are cut from plants grown in a greenhouse. The cut leaf disks or segments are placed in multiwell plates (24-well format) onto water agar. The leaf disks are sprayed with a test solution before (preventative) or after (curative) inoculation. Compounds to be tested are prepared as DMSO solutions (max. 10 mg/ml) which are diluted to the appropriate concentration with 0.025% Tween20 just before spraying. The inoculated leaf disks or segments are incubated under defined conditions (temperature, relative humidity, light, etc.) according to the respective test system. A single evaluation of disease level is carried out 3 to 14 days after inoculation, depending on the pathosystem. Percent disease control relative to the untreated check leaf disks or segments is then calculated. Example 1: Fungicidal Activity Against Puccinia recondita f. Sp. Tritici/Wheat/Leaf Disc Preventative (Brown Rust) Wheat leaf segments cv. Kanzler were placed on agar in multiwell plates (24-well format) and sprayed with the formulated test compound diluted in water. The leaf disks were inoculated with a spore suspension of the fungus 1 day after application. The inoculated leaf segments were incubated at 19° C. and 75% relative humidity (rh) under a light regime of 12 hours light/12 hours darkness in a climate cabinet and the activity of a compound was assessed as percent disease control compared to untreated when an appropriate level of disease damage appears in untreated check leaf segments (7 to 9 days after application). The following compounds at 200 ppm in the applied formulation give at least 80% disease control in this test when compared to untreated control leaf disks under the same conditions, which show extensive disease development.

COC(CN(C)C(=O)c1ccc(-c2noc(C(F)(F)F)n2)c(F)c1)OC [Compound 1.36, N-(2,2-dimethoxyethyl)-3-fluoro-N-methyl-4-[5-(trifluoromethyl)-1,2,4-oxadiazol-3-yl]benzamide]
≥ 80%: inhibition of growth at 20 ppm [1] | pest or weed control at 200 ppm [2] | pest or weed control at 200 ppm [3] | pest or weed control at 100 ppm [4] | pest or weed control at 200 ppm [5]

CSCCCNC(=O)c1ccc(-c2noc(C(F)(F)F)n2)c(F)c1 [Compound 1.6, 3-fluoro-N-(3-methylsulfanyl-propyl)-4-[5-(trifluoromethyl)-1,2,4-oxadiazol-3-yl]benzamide]
≥ 80%: pest or weed control at 200 ppm [3] | pest or weed control at 100 ppm [4] | pest or weed control at 200 ppm [5]

O=C(NC1(C2CC2)CC1)c1ccc(-c2noc(C(F)(F)F)n2)c(F)c1 [Compound 1.27, N-(1-cyclopropyl-cyclopropyl)-3-fluoro-4-[5-(trifluoromethyl)-1,2,4-oxadiazol-3-yl]benzamide]
≥ 80%: inhibition of growth at 20 ppm [1] | pest or weed control at 200 ppm [2] | pest or weed control at 200 ppm [3] | pest or weed control at 100 ppm [4] | pest or weed control at 200 ppm [5]

CC(C)(CS(C)(=O)=O)NC(=O)c1ccc(-c2noc(C(F)(F)F)n2)c(F)c1 [Compound 1.22, N-(1,1-dimethyl-2-methylsulfonyl-ethyl)-3-fluoro-4-[5-(trifluoromethyl)-1,2,4-oxadiazol-3-yl]benzamide]
≥ 80%: pest or weed control at 200 ppm [3] | pest or weed control at 100 ppm [4] | pest or weed control at 200 ppm [5]

CCCN(CC1CC1)C(=O)c1ccc(-c2noc(C(F)(F)F)n2)c(F)c1 [Compound 1.41, N-(cyclopropyl-methyl)-3-fluoro-N-propyl-4-[5-(trifluoromethyl)-1,2,4-oxadiazol-3-yl]benzamide]
≥ 80%: inhibition of growth at 20 ppm [1] | pest or weed control at 200 ppm [2] | pest or weed control at 200 ppm [3] | pest or weed control at 100 ppm [4]

O=C(Nc1nccnn1)c1ccc(-c2noc(C(F)(F)F)n2)c(F)c1 [Compound 1.42, 3-fluoro-N-(1,2,4-triazin-3-yl)-4-[5-(trifluoromethyl)-1,2,4-oxadiazol-3-yl]benzamide]
≥ 80%: inhibition of growth at 20 ppm [1] | pest or weed control at 200 ppm [3] | pest or weed control at 200 ppm [5]

CN(C(=O)c1ccc(-c2noc(C(F)(F)F)n2)c(F)c1)c1ccccn1 [Compound 1.5, 3-fluoro-N-methyl-N-(2-pyridyl)-4-[5-(trifluoromethyl)-1,2,4-oxadiazol-3-yl]benzamide]
≥ 80%: inhibition of growth at 20 ppm [1] | pest or weed control at 200 ppm [3] | pest or weed control at 200 ppm [5]

COC(=O)C1(NC(=O)c2ccc(-c3noc(C(F)(F)F)n3)c(F)c2)CCN(OC)CC1 [Compound 1.13, methyl 4-[[3-fluoro-4-[5-(trifluoromethyl)-1,2,4-oxadiazol-3-yl]benzoyl]amino]-1-methoxy-piperidine-4-carboxylate]
≥ 80%: pest or weed control at 200 ppm [3] | pest or weed control at 100 ppm [4] | pest or weed control at 200 ppm [5]

O=C(NCC1CC1)c1ccc(-c2noc(C(F)(F)F)n2)c(F)c1 [Compound 1.20, N-(cyclo-propylmethyl)-3-fluoro-4-[5-(trifluoromethyl)-1,2,4-oxadiazol-3-yl]benzamide]
≥ 80%: inhibition of growth at 20 ppm [1] | pest or weed control at 200 ppm [2] | pest or weed control at 200 ppm [3] | pest or weed control at 200 ppm [5]

CN(C(=O)c1ccc(-c2noc(C(F)(F)F)n2)c(F)c1)C1CCN(C(=O)OC(C)(C)C)C1 (stereo not shown) [Compound 1.2, tert-butyl 3-[[3-fluoro-4-[5-(trifluoromethyl)-1,2,4-oxadiazol-3-yl]benzoyl]-methyl-amino]pyrrolidine-1-carboxylate]
≥ 80%: inhibition of growth at 20 ppm [1] | pest or weed control at 200 ppm [3] | pest or weed control at 100 ppm [4] | pest or weed control at 200 ppm [5]
